Source: patent US20160251403A1, “PEPTIDE COMBINATIONS AND USES THEREOF IN TREATING DUST MITE ALLERGY” (ALK-ABELLO A/S, priority 2013, published 2016)
No end group written: not given here.

Tests used:
DRB1_0101 = DRB1_0101 (Homo sapiens, UniProt P01903+P01911, A100R/D57E/F55L/F60I/F76Y/I96L/L162R/M171V/P40L/Q125E/R42F/V115G/Y59C); assay: Competitive MHC class II binding assay, DRB1_0101;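 also: competition against a radiolabeled probe peptide (0.1–1 nM) for purified HLA class II protein over 2–4 days, bound counts read after antibody capture, six competitor levels across 100,000-fold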
DRB1_0701 = DRB1_0701 (Homo sapiens, UniProt P01903+P01911, A100R/A102G/A103Q/D57E/D86V/E43K/F76Y/K127E/L162R/M171V/P40G/Q125H/Q99D/R33Q/R42Y/R54Q/S133A/S66F/T210M/V115G/Y107V/Y59L/Y89S); assay: Competitive MHC class II binding assay, DRB1_0701;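 also: displacement of a radiolabeled reference peptide from purified HLA class II protein, with complex-bound radioactivity counted after 2–4 days of incubation and six concentrations spanning a 100,000-fold range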
DRB1_0901 = DRB1_0901 (Homo sapiens, UniProt P01903+P01911, A100R/A103E/D57H/D86V/F55Y/F60I/F76Y/I96F/K127E/L162R/M171V/P40D/Q125H/Q99R/R33Q/R42F/S133A/S66N/T210M/V115G/W38K/Y107V/Y59G/Y89S); assay: Competitive MHC class II binding assay, DRB1_0901;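 also: displacement of a radiolabeled probe peptide from purified HLA class II protein, bound counts read after two to four days incubation, six concentrations spanning 100,000-fold, unlabeled probe as reference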
DRB1_1302 = DRB1_1302 (Homo sapiens, UniProt P01903+P01911, A100E/A169T/K41T/L162R/M171V/P40S/Q125H/Q178H/Q39Y/Q99D/R42S/S66N/T262R/V115G/W38E/Y61H); assay: Competitive MHC class II binding assay, DRB1_1302;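 also: purified HLA class II protein incubated two to four days with a radiolabeled reference binder and test peptide at six concentrations over a 100,000-fold range, complex-bound radioactivity counted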
DRB1_1501 = DRB1_1501 (Homo sapiens, UniProt P01903+P01911); assay: Competitive MHC class II binding assay, DRB1_1501
DRB4_0101 = DRB4_0101 (Homo sapiens, UniProt P01903+P13762, G164S); assay: Competitive MHC class II binding assay, DRB4_0101
DQA10501-DQB10301 = DQA10501-DQB10301 (Homo sapiens, UniProt P01909+P01920); assay: Competitive MHC class II binding assay, DQA10501-DQB10301
DQA10102-DQB10602 = assay: Competitive MHC class II binding assay, DQA10102-DQB10602; details: read-out: HLA-DQA10102-DQB10602; positive binding at cutoff 1000 nM
DRB1_0401 = DRB1_0401 (Homo sapiens, UniProt P01903+P01911, A100K/A169T/F76Y/I96L/K127E/L162R/M171V/N62H/P40V/Q125Y/R42H/S133A/S149N/S66Y/V115G/V209L/W38E); assay: Competitive MHC class II binding assay, DRB1_0401
DRB1_0405 = DRB1_0405 (Homo sapiens, UniProt P01903+P01911, A100R/A169T/D86S/F76Y/I96L/K127E/L162R/M171V/N62H/P40V/Q125Y/R42H/S133A/S149N/S66Y/V115G/V209L/W38E); assay: Competitive MHC class II binding assay, DRB1_0405
DRB1_0802 = DRB1_0802 (Homo sapiens, UniProt P01903+P01911, A100R/A103L/A169T/F76Y/H45Y/I96F/K41T/L162R/M171V/P40S/Q125H/Q178H/Q39Y/Q99D/R218S/R42G/S66Y/V115G/W38E); assay: Competitive MHC class II binding assay, DRB1_0802
DRB3_0101 = DRB3_0101 (Homo sapiens, UniProt P01903+P79483); assay: Competitive MHC class II binding assay, DRB3_0101
[1] = Solubility of peptides in aqueous solutions at different pH (visual inspection, OD, HPLC); format: physicochemical; details: for Solubility at pH 7: evaluated by visual inspection
Excerpt: This example describes modifications of parent peptides to improve the aqueous solubility, in particular to increase the solubility in an aqueous solution having pH in a physiologically acceptable range, e.g. from 6 to 8. Solubility is closely related to the ratio between hydrophilic and hydrophobic amino acid residues and the net charge state of the peptide. Peptides have zero net charge at pH=pI, and would be expected to show the lowest solubility at this pH. […] The solubility of these peptides was increased at pH values outside the physiological range (data not shown).
Peptides were tested for their ability to dissolve in aqueous solutions at different pH values. In short, each of the peptides were dissolved in water (pH about 5-6), hydrochloride solution at pH 2 (10 mM HCl), acetate buffer with pH 5 (20 mM acetate and 140 mM sodium chloride), phosphate buffer with pH 7 (20 mM phosphate and 140 mM sodium chloride) or bistrispropate buffer with pH 9 (20 mM bitrispropane and 140 mM sodium chloride, respectively, to produce a final molar concentration of the peptide of about 0.25 mM or 1 mM. Optionally, about 20% DMSO may be part of the solution. For comparison reasons, peptides were also dissolved in acetonitrile or DMSO. The solutions were inspected visually before and after centrifugation for turbidity, presence of particles/aggregates. In addition, presence of turbidity/particles/aggregates were detected by optical density (OD), but might also be detected by size-exclusion chromatography. Sub-visual particles may also be detected by dynamic light scattering (DLS) analysis. The solubility and stability of each peptide were also investigated using HPLC, e.g. RP-HPLC. For example, each of the solutions were injected onto the HPLC and the peak height or peak area of each of the peptides were compared to the corresponding peptide of a chromatogram of peptides dissolved in acetonitrile or DMSO—as peptides were assumed to be fully dissolved and stable in these solvents.

DRB3_0202 = DRB3_0202 (Homo sapiens, UniProt P01903+P79483, A212P/D57E/F66Y/L67A/R103Q/R218S/R40L/S89Y/T80R/V86D/Y55F/Y59H); assay: Competitive MHC class II binding assay, DRB3_0202
DQA10501-DQB10201 = DQA10501-DQB10201 (Homo sapiens, UniProt P01909+P01920, A45G/A70V/D89A/E106A/E77G/E98D/H199R/L107V/N214S/P84L/P87L/T103K/T109R/T172A/T60S/V78E/V99I/Y58L/Y62S/Y69I/Y79F); assay: Competitive MHC class II binding assay, DQA10501-DQB10201
DRB5_0101 = DRB5_0101 (Homo sapiens, UniProt P01903+Q30154); assay: Competitive MHC class II binding assay, DRB5_0101

**Q.** For `CC[C@H](C)[C@H](NC(=O)[C@@H](NC(=O)[C@@H](N)CO)[C@@H](C)CC)C(=O)N[C@@H](Cc1c[nH]cn1)C(=O)N[C@@H](CCCNC(=N)N)C(=O)NCC(=O)N[C@@H](CCCCN)C(=O)N1CCC[C@H]1C(=O)N[C@@H](Cc1ccccc1)C(=O)N[C@@H](CCC(N)=O)C(=O)N[C@@H](CC(C)C)C(=O)N[C@@H](CCC(=O)O)C(=O)N[C@@H](C)C(=O)O` [pep-002], which IC50 (DRB1_0101) is on record?
**A.** < 1 µM

**Q.** And the IC50 (DRB1_0701)?
**A.** < 1 µM

**Q.** And the IC50 (DRB1_0901)?
**A.** < 1 µM

**Q.** What about the IC50 (DRB1_1302) of the same compound?
**A.** < 1 µM

**Q.** And the IC50 (DRB1_1501)?
**A.** < 1 µM

**Q.** And the IC50 (DRB4_0101)?
**A.** < 1 µM

**Q.** And the IC50 (DQA10501-DQB10301)?
**A.** < 1 µM

**Q.** With `CC[C@H](C)[C@H](NC(=O)CNC(=O)[C@@H](N)CCCNC(=N)N)C(=O)N[C@@H](CCC(=O)O)C(=O)N[C@@H](Cc1ccc(O)cc1)C(=O)N[C@H](C(=O)N[C@@H](CCC(N)=O)C(=O)N[C@@H](Cc1c[nH]cn1)C(=O)N[C@@H](CC(N)=O)C(=O)NCC(=O)N[C@H](C(=O)N[C@H](C(=O)N[C@@H](CCC(N)=O)C(=O)N[C@@H](CCC(=O)O)C(=O)N[C@@H](CO)C(=O)O)C(C)C)C(C)C)[C@@H](C)CC` [pep-025] as the compound, how does the IC50 (DQA10102-DQB10602) read?
**A.** < 1 µM

**Q.** Which IC50 (DRB1_0101) does the source give for “ESVKYVQSNGGAI [HDM201, reference compound]” here?
**A.** < 1 µM

**Q.** And the IC50 (DRB1_0401)?
**A.** < 1 µM

**Q.** And the IC50 (DRB1_0405)?
**A.** < 1 µM

**Q.** What about the IC50 (DRB1_0701) of the same compound?
**A.** < 1 µM

**Q.** What about the IC50 (DRB1_0802) of the same compound?
**A.** < 1 µM

**Q.** And the IC50 (DRB1_0901)?
**A.** < 1 µM

**Q.** What about the IC50 (DRB1_1302) of the same compound?
**A.** < 1 µM

**Q.** What about the IC50 (DRB1_1501) of the same compound?
**A.** < 1 µM

**Q.** And the IC50 (DRB3_0101)?
**A.** < 1 µM

**Q.** And the IC50 (DRB4_0101)?
**A.** < 1 µM

**Q.** What does the source list for GSHGSDPSIIHRGKPFTLEA [pep-102]?
**A.** IC50 (DRB1_0101): < 1 µM; IC50 (DRB1_0701): < 1 µM; IC50 (DRB1_0901): < 1 µM; IC50 (DRB1_1501): < 1 µM; IC50 (DRB4_0101): < 1 µM; IC50 (DQA10501-DQB10301): < 1 µM; IC50 (DQA10102-DQB10602): < 1 µM

**Q.** For HRGKPFQLEAVFEANQNTKT-NH2 [pep-151], which “Solubility at pH 7” value ([1]; Table 11c) is on record?
**A.** Clear

**Q.** With KIREALAQTHSAIAVIIGIKDLDA-NH2 [pep-150] as the compound, how does the “Solubility at pH 7” value ([1]; Table 11c) read?
**A.** Clear

**Q.** For LVGDNGVLASAIATHAKIRD-NH2 [pep-149], which “Solubility at pH 7” value ([1]; Table 11c) is on record?
**A.** Clear

**Q.** With NHEIKKVLVPGSHGSEPSII [pep-089] as the compound, how does the IC50 (DRB1_0802) read?
**A.** < 1 µM

**Q.** What about the IC50 (DRB4_0101) of the same compound?
**A.** < 1 µM

**Q.** With RGIEYIQQNGVVEERSYPYVAR [pep-134] as the compound, how does the “Solubility at pH 7” value ([1]; Table 11a) read?
**A.** Clear

**Q.** For RHAVNIVGYSNAQGVDYWIVR [Peptide 136], which “Solubility at pH 7 (visual inspection)” value [1] is on record?
**A.** Slight turbid

**Q.** Which “Solubility at pH 7 (visual inspection)” value [1] does the source give for RHAVNIVGYSNAQGVDYWIVRR [Peptide 137] here?
**A.** Clear

**Q.** For RIEYIQQNGVVEERSYPYVAR [Peptide 139], which “Solubility at pH 7 (visual inspection)” value [1] is on record?
**A.** Clear

**Q.** With RIEYIQQNGVVEERSYPYVARR [Peptide 140] as the compound, how does the “Solubility at pH 7 (visual inspection)” value [1] read?
**A.** Clear

**Q.** For RREALAQTHSAIAVIIGIKDLDA [Peptide 143], which “Solubility at pH 7 (visual inspection)” value [1] is on record?
**A.** Slight turbid

**Q.** For RREALAQTHSAIAVIIGIKDLDAR [Peptide 144], which “Solubility at pH 7 (visual inspection)” value [1] is on record?
**A.** Clear

**Q.** For RRHAVNIVGYSNAQGVDYWIVRR [Peptide 138], which “Solubility at pH 7 (visual inspection)” value [1] is on record?
**A.** Slight turbid

**Q.** With RRHAVNIVGYSNAQGVDYWIVRRR [Peptide 133] as the compound, how does the “Solubility at pH 7 (visual inspection)” value [1] read?
**A.** Clear

**Q.** For RRIEYIQQNGVVEERSYPYVARR [Peptide 141], which “Solubility at pH 7 (visual inspection)” value [1] is on record?
**A.** Clear

**Q.** For RRIEYIQQNGVVEERSYPYVARRR [Peptide 142], which “Solubility at pH 7 (visual inspection)” value [1] is on record?
**A.** Clear

**Q.** With RRREALAQTHSAIAVIIGIKDLDAR [Peptide 145] as the compound, how does the “Solubility at pH 7 (visual inspection)” value [1] read?
**A.** Clear

**Q.** With “RRREALAQTHSAIAVIIGIKDLDARR [Peptide 146]” as the compound, how does the “Solubility at pH 7 (visual inspection)” value [1] read?
**A.** Clear

**Q.** Which “Solubility at pH 7 (visual inspection)” value [1] does the source give for RRRRHAVNIVGYSNAQGVDYWIVR [Peptide 132] here?
**A.** Slight turbid

**Q.** For TNASSINGNAPAEIDLRQM [pep-041], which IC50 (DRB1_1302) is on record?
**A.** < 1 µM

**Q.** What about the IC50 (DRB3_0101) of the same compound?
**A.** < 1 µM

**Q.** And the IC50 (DRB3_0202)?
**A.** < 1 µM

**Q.** What about the IC50 (DQA10501-DQB10201) of the same compound?
**A.** < 1 µM

**Q.** With YPPNANKIREALAQTHSAIA [pep-053] as the compound, how does the IC50 (DRB1_0101) read?
**A.** < 1 µM

**Q.** What about the IC50 (DRB1_0701) of the same compound?
**A.** < 1 µM

**Q.** And the IC50 (DRB1_0901)?
**A.** < 1 µM

**Q.** What about the IC50 (DRB4_0101) of the same compound?
**A.** < 1 µM

**Q.** And the IC50 (DRB5_0101)?
**A.** < 1 µM

**Q.** And the IC50 (DQA10501-DQB10301)?
**A.** < 1 µM

**Q.** What about the IC50 (DQA10102-DQB10602) of the same compound?
**A.** < 1 µM
